# From paper PMC10893631, “Receptor-based pharmacophore modeling, molecular docking, synthesis and biological evaluation of novel VEGFR-2, FGFR-1, and BRAF multi-kinase inhibitors” (BMC Chemistry, 2024)
# Columns and labels:
# Experiment in all cases: NCI SRB growth inhibition (single dose 10 µM / five-dose)
# Format in all cases: cell-based, human
# SR = conditions: Homo sapiens; for inhibition at 10 µM: SR (Leukemia), read-out: GI%; for GI50: SR, Leukemia, five-dose
# Procedure, shortened: (§1)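 Seeding varied with cell doubling time (5000–40,000 cells/well). Dilutions were 10-fold or ½ log, five levels in total. Sulforhodamine B staining (0.4% w/v, 10 min, room temperature) of TCA-fixed cells measured growth.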
# UACC-257 = conditions: Homo sapiens; for inhibition at 10 µM: UACC-257 (Melanoma), read-out: GI%; for GI50: UACC-257, Melanoma, five-dose
# Procedure, shortened: as §1
# ACHN = conditions: Homo sapiens; for inhibition at 10 µM: ACHN (Renal cancer), read-out: GI%; for GI50: ACHN, Renal cancer, five-dose
# Procedure, shortened: as §1
# SK-MEL-2 = conditions: Homo sapiens; for inhibition at 10 µM: SK-MEL-2 (Melanoma), read-out: GI%; for GI50: SK-MEL-2, Melanoma, five-dose
# Procedure, shortened: as §1
# KM12 = conditions: Homo sapiens; for inhibition at 10 µM: KM12 (Colon cancer), read-out: GI%; for GI50: KM12, Colon cancer, five-dose
# Procedure, shortened: as §1
# SK-MEL-5 = conditions: Homo sapiens; for inhibition at 10 µM: SK-MEL-5 (Melanoma), read-out: GI%; for GI50: SK-MEL-5, Melanoma, five-dose
# Procedure, shortened: as §1
# K-562 = conditions: Homo sapiens, K562; for inhibition at 10 µM: K-562 (Leukemia), read-out: GI%; for GI50: K-562, Leukemia, five-dose
# Procedure, shortened: as §1
# SNB-75 = conditions: Homo sapiens; for inhibition at 10 µM: SNB-75 (CNS cancer), read-out: GI%; for GI50: SNB-75, CNS cancer, five-dose
# Procedure, shortened: as §1
# NCI-H226 = conditions: Homo sapiens; for inhibition at 10 µM: NCI-H226 (Non-small cell lung cancer), read-out: GI%; for GI50: NCI-H226, Non-small cell lung cancer, five-dose
# Procedure, shortened: as §1
# NCI-H23 = conditions: Homo sapiens; for inhibition at 10 µM: NCI-H23 (Non-small cell lung cancer), read-out: GI%; for GI50: NCI-H23, Non-small cell lung cancer, five-dose
# Procedure, shortened: as §1
# NCI/ADR-RES = conditions: Homo sapiens; for inhibition at 10 µM: NCI/ADR-RES (Ovarian cancer), read-out: GI%; for GI50: NCI/ADR-RES, Ovarian cancer, five-dose
# Procedure, shortened: as §1
# IGROV1 = conditions: Homo sapiens, IGROV-1; for inhibition at 10 µM: IGROV1 (Ovarian cancer), read-out: GI%; for GI50: IGROV1, Ovarian cancer, five-dose
# Procedure, shortened: as §1
# SF-268 = conditions: Homo sapiens; for inhibition at 10 µM: SF-268 (CNS cancer), read-out: GI%; for GI50: SF-268, CNS cancer, five-dose
# Procedure, shortened: as §1
# 786–0 = conditions: Homo sapiens; for inhibition at 10 µM: 786–0 (Renal cancer), read-out: GI%; for GI50: 786–0, Renal cancer, five-dose
# Procedure, shortened: as §1
# MDA-MB-231/ATCC = conditions: Homo sapiens; for inhibition at 10 µM: MDA-MB-231/ATCC (Breast cancer), read-out: GI%; for GI50: MDA-MB-231/ATCC, Breast cancer, five-dose
# Procedure, shortened: as §1
# HT29 = conditions: Homo sapiens, HT-29; for inhibition at 10 µM: HT29 (Colon cancer), read-out: GI%; for GI50: HT29, Colon cancer, five-dose
# Procedure, shortened: as §1
# TK-10 = conditions: Homo sapiens; for inhibition at 10 µM: TK-10 (Renal cancer), read-out: GI%; for GI50: TK-10, Renal cancer, five-dose
# Procedure, shortened: as §1
# MDA-MB-468 = conditions: Homo sapiens; for inhibition at 10 µM: MDA-MB-468 (Breast cancer), read-out: GI%; for GI50: MDA-MB-468, Breast cancer, five-dose
# Procedure, shortened: as §1
# EKVX = conditions: Homo sapiens; for inhibition at 10 µM: EKVX (Non-small cell lung cancer), read-out: GI%; for GI50: EKVX, Non-small cell lung cancer, five-dose
# Procedure, shortened: as §1
# HOP-62 = conditions: Homo sapiens; for GI50: HOP-62, Non-small cell lung cancer, five-dose
# Procedure, shortened: as §1
# COLO 205 = conditions: Homo sapiens; for GI50: COLO 205, Colon cancer, five-dose
# Procedure, shortened: as §1
# SNB-19 = conditions: Homo sapiens; for inhibition at 10 µM: SNB-19 (CNS cancer), read-out: GI%; for GI50: SNB-19, CNS cancer, five-dose
# Procedure, shortened: as §1
# RPMI-8226 = conditions: Homo sapiens; for inhibition at 10 µM: RPMI-8226 (Leukemia), read-out: GI%; for GI50: RPMI-8226, Leukemia, five-dose
# Procedure, shortened: as §1
# BT-549 = conditions: Homo sapiens; for inhibition at 10 µM: BT-549 (Breast cancer), read-out: GI%; for GI50: BT-549, Breast cancer, five-dose
# Procedure, shortened: as §1
# NCI-H522 = conditions: Homo sapiens; for inhibition at 10 µM: NCI-H522 (Non-small cell lung cancer), read-out: GI%; for GI50: NCI-H522, Non-small cell lung cancer, five-dose
# Procedure, shortened: as §1
# SN12C = conditions: Homo sapiens; for GI50: SN12C, Renal cancer, five-dose
# Procedure, shortened: as §1
compound,measurement,setting,value
"O=C(NN=Cc1ccccc1O)c1ccc2[nH]c(-c3ccc(Cl)cc3)nc2c1 [8o, 2-(4-Chlorophenyl)-N'-(2-hydroxybenzylidene)-1H-benzo[d]imidazole-5-carbohydrazide]",inhibition at 10 µM,SR,75.2%
same,GI50,SR,0.12 µM
same,inhibition at 10 µM,UACC-257,42.4%
same,GI50,UACC-257,7.35 µM
same,inhibition at 10 µM,ACHN,94.2%
same,GI50,ACHN,0.81 µM
same,inhibition at 10 µM,SK-MEL-2,> 100%
same,GI50,SK-MEL-2,4.6 µM
same,inhibition at 10 µM,KM12,85.4%
same,GI50,KM12,1.24 µM
same,inhibition at 10 µM,SK-MEL-5,> 100%
same,GI50,SK-MEL-5,0.51 µM
same,inhibition at 10 µM,K-562,85.5%
same,GI50,K-562,0.15 µM
same,inhibition at 10 µM,SNB-75,> 100%
same,GI50,SNB-75,0.74 µM
same,inhibition at 10 µM,NCI-H226,88.6%
same,GI50,NCI-H226,4.33 µM
same,inhibition at 10 µM,NCI-H23,> 100%
same,GI50,NCI-H23,0.31 µM
same,inhibition at 10 µM,NCI/ADR-RES,56.4%
same,GI50,NCI/ADR-RES,1.15 µM
same,inhibition at 10 µM,IGROV1,84.3%
same,GI50,IGROV1,0.95 µM
same,inhibition at 10 µM,SF-268,> 100%
same,GI50,SF-268,0.84 µM
same,inhibition at 10 µM,786–0,> 100%
same,GI50,786–0,0.83 µM
same,inhibition at 10 µM,MDA-MB-231/ATCC,> 100%
same,GI50,MDA-MB-231/ATCC,1.41 µM
same,inhibition at 10 µM,HT29,> 100%
same,GI50,HT29,1.08 µM
same,inhibition at 10 µM,TK-10,95%
same,GI50,TK-10,5.08 µM
same,inhibition at 10 µM,MDA-MB-468,> 100%
same,GI50,MDA-MB-468,1.51 µM
same,inhibition at 10 µM,EKVX,67.2%
same,GI50,EKVX,9.31 µM
same,GI50,HOP-62,0.84 µM
same,GI50,COLO 205,0.89 µM
same,inhibition at 10 µM,SNB-19,> 100%
same,GI50,SNB-19,1.12 µM
same,inhibition at 10 µM,RPMI-8226,88.2%
same,GI50,RPMI-8226,> 38.8 µM
same,inhibition at 10 µM,BT-549,60.6%
same,GI50,BT-549,3.57 µM
same,inhibition at 10 µM,NCI-H522,> 100%
same,GI50,NCI-H522,0.26 µM
same,inhibition at 10 µM,"SN12C; SN12C (Renal cancer), 10 µM, read-out: GI%",59.4%
same,GI50,SN12C,3.41 µM
"COc1cccc(C=NNC(=O)c2ccc3[nH]c(-c4ccc(Cl)cc4)nc3c2)c1 [8q, 2-(4-Chlorophenyl)-N'-(3-methoxybenzylidene)-1H-benzo[d]imidazole-5-carbohydrazide]",inhibition at 10 µM,SR,> 100%
same,GI50,SR,4.15 µM
same,inhibition at 10 µM,UACC-257,> 100%
same,GI50,UACC-257,4.8 µM
same,inhibition at 10 µM,ACHN,> 100%
same,GI50,ACHN,4.21 µM
same,inhibition at 10 µM,SK-MEL-2,> 100%
same,GI50,SK-MEL-2,3.07 µM
same,inhibition at 10 µM,KM12,> 100%
same,GI50,KM12,4.42 µM
same,inhibition at 10 µM,SK-MEL-5,> 100%
same,GI50,SK-MEL-5,4.9 µM
same,inhibition at 10 µM,K-562,98.1%
same,GI50,K-562,3.14 µM
same,inhibition at 10 µM,SNB-75,> 100%
same,GI50,SNB-75,5.69 µM
same,inhibition at 10 µM,NCI-H226,> 100%
same,GI50,NCI-H226,2.57 µM
same,inhibition at 10 µM,NCI-H23,> 100%
same,GI50,NCI-H23,2.2 µM
same,inhibition at 10 µM,NCI/ADR-RES,23%
same,GI50,NCI/ADR-RES,94.8 µM
same,inhibition at 10 µM,IGROV1,> 100%
same,GI50,IGROV1,3.01 µM
same,inhibition at 10 µM,SF-268,> 100%
same,GI50,SF-268,2.18 µM
same,inhibition at 10 µM,786–0,> 100%
same,GI50,786–0,1.85 µM
same,inhibition at 10 µM,MDA-MB-231/ATCC,> 100%
same,GI50,MDA-MB-231/ATCC,1.89 µM
same,inhibition at 10 µM,HT29,> 100%
same,GI50,HT29,2.38 µM
same,inhibition at 10 µM,TK-10,> 100%
same,GI50,TK-10,23.9 µM
same,inhibition at 10 µM,MDA-MB-468,> 100%
same,GI50,MDA-MB-468,2.97 µM
same,inhibition at 10 µM,EKVX,> 100%
same,GI50,EKVX,3.52 µM
same,inhibition at 10 µM,"HOP-62; HOP-62 (Non-small cell lung cancer), 10 µM, read-out: GI%",> 100%
same,GI50,HOP-62,1.92 µM
same,inhibition at 10 µM,"COLO 205; COLO 205 (Colon cancer), 10 µM, read-out: GI%",> 100%
same,GI50,COLO 205,4.02 µM
same,inhibition at 10 µM,SNB-19,> 100%
same,GI50,SNB-19,2.17 µM
same,inhibition at 10 µM,RPMI-8226,> 100%
same,GI50,RPMI-8226,1.47 µM
same,inhibition at 10 µM,BT-549,6.97%
same,GI50,BT-549,10.1 µM
same,inhibition at 10 µM,NCI-H522,> 100%
same,GI50,NCI-H522,2.26 µM
same,GI50,SN12C,2.22 µM
